Experimental data as given in patent publication US20090136616A1, “METHODS OF FEEDING RUMINANTS ON WINTER FORAGE SUPPLEMENTING WITH ZEOLITE” (priority 2007, published 2009).
Like-named read-outs stand apart in the source and are kept apart here.

Legend:
[1] = system: Char-Hereford cross heifer calves; format: in vivo
Description: The experimental animals were Char-Hereford cross unweaned heifer calves originating from Western Ontario and Eastern Manitoba Canada. On arrival they were vaccinated for IBR, PI3 and BVD. They were treated for internal and external parasites with Ivomec. They were implanted with Synovex C.
Approximately 350 head of calves were purchased weighing approximately 500 lbs. From this group 160 head and were selected for the experiment and randomly allotted into four experimental groups. Each treatment contains 5 reps of 8 head each. They were grown on a medium energy level diet limit fed calculated to obtain a daily gain of approximately 2.6 lbs. Length of feeding period will be approximately 100 days. After arrival and prior to the trial allotment they were each-backgrounded for approximately 3-4 weeks. They averaged approximately 550 lbs at the beginning of the trial.
Data collected included: • 1. Gain, consumption and conversions at 28 day intervals and overall. • 2. Observations on bloat and metabolic problems. • 3. Cost of gain by treatment including feed and feed additive cost, with no yardage or “mark up”.
Originally the trial was scheduled for 100 days, but because of unusually good performance, it was decided to terminate at 91 days.

feedlot cattle = test: Summary of seven feedlot experiments with Biolite in med and n-med finishing diets (rumen pH, liver abscesses, performance); format: in vivo; details: sample collected by Geishauser Probe prior to the morning feeding; B at 1.2% DMB
Description: These diets have been composed of corn silage for roughage, flaked corn, and a substantial amount of wet corn milling byproducts.
The feed additives used included Monensin sodium (R) and Tylosin phosphate (T).
Data collected included daily gain, consumption, feed efficiency, rumen pH and observations on bloat and metabolic problems. Carcass data including liver abscess occurrence were collected.
Rumen samples were collected from cattle prior to the morning feeding using a Geishauser Probe.

[2] = system: Angus cross steer and heifer calves; details: bovine, in vivo
Description: The experimental animals were Angus cross steer and heifer calves from Manitoba, Canada. They were trucked to the experimental feedlot located near Kitchener, Ontario, Canada. On arrival of the animal received IBR, PIP and BVD vaccine plus Covexina. They were also treated for internal and external parasites with Ivomec pour on. Prior to the beginning of this trial the calves were preconditioned for approximately 45 days and adapted to a high concentrate diet.
Following the preconditioning period, unhealthy calves were removed and the remaining calves were divided into steer and heifer groups. These groups were then divided at random into 20 pens of steers and 20 pens of heifers. Each of the pens contained 8 head of calves. Five pens of steers and 5 pens of heifers were then allotted to each of 4 experimental treatments.
Initial, 28 day interim weights and final weights were based on gross weights less a 4% pencil shrink. Experimental data collected included average daily gain, feed consumption and feed conversions. In addition, death loss and bloat problems were observed. At the termination of the trial, Rumen pH was measured on 4 animals from each treatment using a Geishauser Probe. The pH measurements were taken at 2, 4 and 6 hours after feeding.
A calcium clinoptilolite zeolite (Biolite®) was added in place of an equivalent amount of corn. […]

[3] = summarized: NC vs RT and BL vs no BL treatments pooled

## Nova-Cell [NC]
[1]; 91 days
  Bloat Died: 0
  Bloat Treated: 0
  Consumption: 17.0αb
  Conversions: 5.97b
[1]; 91 days, limit fed grow ration, BL at 1.2% DMB
  ADG: 2.85b
[1]; [3]
  ADG: 3.03α
  Consumption: 17.11α
  Conversions: 5.70

## Monensin sodium [R]
Feedlot cattle
  rumen pH: R 6.43b means with different super script letter differ, P < .OS O 6.46b

## calcium clinoptilolite zeolite [Biolite ®]
[2]
  Metabolics Treated: 4

## Nova-Cell + Biolite [NC + BL]
[1]; bovine, in vivo
  Bloat Treated: 0
